Experimental data: patent US10208019B2, “GLP-1 receptor agonists and uses thereof” (Pfizer Inc., priority 2016, dated 2019)

Target: human GLP-1R (Homo sapiens, UniProt P43220, G168S)
Assay: CHO GLP-1R Clone H6—Assay 1: HTRF cAMP cell-based functional agonist assay (high GLP-1R density)
Settings: for EC50: read-out: Assay 1 EC50, CHO GLP-1R Clone H6, cAMP HTRF, geometric mean; for Emax: read-out: Assay 1 Emax (%), CHO GLP-1R Clone H6
[1] = relative to saturating concentration of full agonist GLP-1 (1 μM), arithmetic mean

Sequence of human GLP-1R (P43220 24-463 G168S limits assumed): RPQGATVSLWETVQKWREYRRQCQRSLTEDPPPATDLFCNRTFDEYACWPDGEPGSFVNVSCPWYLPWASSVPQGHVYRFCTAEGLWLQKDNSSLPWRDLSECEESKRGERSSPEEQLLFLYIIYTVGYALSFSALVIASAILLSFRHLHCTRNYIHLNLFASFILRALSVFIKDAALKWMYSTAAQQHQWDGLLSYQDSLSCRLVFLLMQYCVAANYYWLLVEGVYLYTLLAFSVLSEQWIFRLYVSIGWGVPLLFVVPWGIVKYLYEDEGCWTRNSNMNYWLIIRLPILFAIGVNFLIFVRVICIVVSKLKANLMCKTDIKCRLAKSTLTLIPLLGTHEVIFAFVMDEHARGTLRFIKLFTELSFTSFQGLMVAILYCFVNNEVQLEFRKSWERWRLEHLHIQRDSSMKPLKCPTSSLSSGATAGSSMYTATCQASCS
Protocol: GLP-1R-mediated agonist activity was determined with a cell-based functional assay utilizing an HTRF (Homogeneous Time-Resolved Fluorescence) cAMP detection kit (cAMP HI Range Assay Kit; CisBio cat #62AM6PEJ) that measures cAMP levels in the cell. The method is a competitive immunoassay between native cAMP produced by the cells and exogenous cAMP labeled with the dye d2. The tracer binding is visualized by a mAb anti-cAMP labeled with Cryptate. The specific signal (i.e. energy transfer) is inversely proportional to the concentration of cAMP in either standard or experimental sample.
The human GLP-1R coding sequence (NCBI Reference Sequence NP_002053.3, including naturally-occurring variant Gly168Ser) was subcloned into pcDNA3 (Invitrogen) and a cell line stably expressing the receptor was isolated (designated Clone H6).
Cells were removed from cryopreservation, re-suspended in 40 mL of Dulbecco's Phosphate Buffered Saline (DPBS-Lonza Cat #17-512Q) and centrifuged at 800×g for 5 min at 22° C. The cell pellet was then re-suspended in 10 mL of growth medium [DMEM/F12 1:1 Mixture with HEPES, L-Gln, 500 mL (DMEM/F12 Lonza Cat #12-719F), 10% heat inactivated fetal bovine serum (Gibco Cat #16140-071), 5 mL of 100× Pen-Strep (Gibco Cat #15140-122), 5 mL of 100× L-Glutamine (Gibco Cat #25030-081) and 500 μg/mL Geneticin (G418) (Invitrogen #10131035)]. A 1 mL sample of the cell suspension in growth media was counted on a Becton Dickinson ViCell to determine cell viability and cell count per mL. The remaining cell suspension was then adjusted with growth media to deliver 2000 viable cells per well using a Matrix Combi Multidrop reagent dispenser, and the cells were dispensed into a white 384 well tissue culture treated assay plate (Corning 3570). The assay plate was then incubated for 48 hours at 37° C. in a humidified environment in 5% carbon dioxide.
Varying concentrations of each compound to be tested (in DMSO) were diluted in assay buffer (HBSS with Calcium/Magnesium (Lonza/BioWhittaker cat #10-527F)/0.1% BSA (Sigma Aldrich cat #A7409-1L)/20 mM HEPES (Lonza/BioWhiftaker cat #17-737E) containing 100 μM 3-isobutyl-1-methylxanthin (IBMX; Sigma cat #15879). The final DMSO concentration is 1%.
After 48 hours, the growth media was removed from the assay plate wells, and the cells were treated with 20 μL of the serially diluted compound in assay buffer for 30 minutes at 37° C. in a humidified environment in 5% carbon dioxide. Following the 30 minute incubation, 10 μL of labeled d2 cAMP and 10 μL of anti-cAMP antibody (both diluted 1:20 in cell lysis buffer; as described in the manufacturer's assay protocol) were added to each well of the assay plate. The plates were then incubated at room temperature and after 60 minutes, changes in the HTRF signal were read with an Envision 2104 multi-label plate reader using excitation of 330 nm and emissions of 615 and 665 nm. Raw data were converted to nM cAMP by interpolation from a cAMP standard curve (as described in the manufacturer's assay protocol) and the percent effect was determined relative to a saturating concentration of the full agonist GLP-17-36 (1 μM) included on each plate. EC50 determinations were made from agonist dose-response curves analyzed with a curve fitting program using a 4-parameter logistic dose response equation.

Row | EC50 [nM] | Emax [1] [%] | Compound | Assay 1 Emax (%) (CHO GLP-1R Clone H6, relative to saturating concentration of full agonist GLP-1 (1 μM), arithmetic mean)
1 | 130 | 80 | CCn1ccnc1Cn1c(CN2CCC(c3cccc(OCc4ccc(Cl)cc4F)n3)CC2)nc2ccc(C(=O)O)cc21 [Example 11A-39, 2-[(4-{6-[(4-chloro-2-fluorobenzyl)oxy]pyridin-2-yl}piperidin-1-yl)methyl]-1-[(1-ethyl-1H-imidazol-2-yl)methyl]-1H-benzimidazole-6-carboxylic acid] | –
2 | 2500 | 71 | CN1CCOC(Cn2c(CN3CCC(c4cccc(OCc5ccc(Cl)cc5F)n4)CC3)nc3ccc(C(=O)O)cc32)C1 (stereo not shown) [Example 11A-63, 2-[(4-{6-[(4-chloro-2-fluorobenzyl)oxy]pyridin-2-yl}piperidin-1-yl)methyl]-1-[(4-methylmorpholin-2-yl)methyl]-1H-benzimidazole-6-carboxylic acid] | –
3 | 600 | 70 | COCCn1c(CN2CCN(c3cccc(OCc4ccc(Cl)cc4F)n3)CC23CC3)nc2ccc(C(=O)O)cc21 [Example 12A-03, 2-[(7-{6-[(4-chloro-2-fluorobenzyl)oxy]pyridin-2-yl}-4,7-diazaspiro[2.5]oct-4-yl)methyl]-1-(2-methoxyethyl)-1H-benzimidazole-6-carboxylic acid] | –
4 | – | – | N#Cc1ccc(COc2cccc(C3CCN(Cc4nc5ccc(C(=O)O)cc5n4CC4CCOC4)CC3)n2)c(F)c1 (single isomer, unassigned; enantiomer 1) [Example 14A-09, 2-[(4-{6-[(4-cyano-2-fluorobenzyl)oxy]pyridin-2-yl}piperidin-1-yl)methyl]-1-(tetrahydrofuran-3-ylmethyl)-1H-benzimidazole-6-carboxylic acid,enantiomer 1] | 73
5 | 87 | 83 | Cn1cc(CCn2c(CN3CCC(c4cccc(OCc5ccc(Cl)cc5F)n4)CC3)nc3ccc(C(=O)O)cc32)cn1 [Example 11A-32, 2-[(4-{6-[(4-chloro-2-fluorobenzyl)oxy]pyridin-2-yl}piperidin-1-yl)methyl]-1-[2-(1-methyl-1H-pyrazol-4-yl)ethyl]-1H-benzimidazole-6-carboxylic acid] | –
6 | 210 | 66 | COCCn1c(CN2CCN(c3cccc(OCc4ccc(Cl)cc4F)n3)[C@@H](C)C2)nc2ccc(C(=O)O)cc21 [Example 1A-13, 2-{[(3S)-4-{6-[(4-chloro-2-fluorobenzyl)oxy]pyridin-2-yl}-3-methylpiperazin-1-yl]methyl}-1-(2-methoxyethyl)-1H-benzimidazole-6-carboxylic acid] | –
7 | > 20000 | – | COCCN1CCCC(Cn2c(CN3CCC(c4cccc(OCc5ccc(Cl)cc5F)n4)CC3)nc3ccc(C(=O)O)cc32)C1 (stereo not shown) [Example 11A-13, 2-[(4-{6-[(4-chloro-2-fluorobenzyl)oxy]pyridin-2-yl}piperidin-1-yl)methyl]-1-{[1-(2-methoxyethyl)piperidin-3-yl]methyl}-1H-benzimidazole-6-carboxylic acid] | –
8 | 190 | 74 | O=C(O)c1ccc2nc(CN3CCC(c4cccc(OCc5ccc(Cl)cc5F)n4)CC3)n(CCc3c[nH]cn3)c2c1 [Example 11A-41, 2-[(4-{6-[(4-chloro-2-fluorobenzyl)oxy]pyridin-2-yl}piperidin-1-yl)methyl]-1-[2-(1H-imidazol-4-yl)ethyl]-1H-benzimidazole-6-carboxylic acid] | –
9 | 140 | 76 | O=C(O)c1ccc2nc(CN3CCC(c4cccc(OCc5ccc(Cl)cc5F)n4)CC3)n(Cc3cnoc3)c2c1 [Example 10A-68] | –
10 | 200 | 79 | Cn1c(CN2CCC(c3cccc(OCc4ccc(F)cc4F)n3)CC2)nc2ccc(C(=O)O)cc21 [Example 9A-03, 2-[(4-{6-[(2,4-difluorobenzyl)oxy]pyridin-2-yl}piperidin-1-yl)methyl]-1-methyl-1H-benzimidazole-6-carboxylic acid] | –
11 | 170 | 68 | Cn1c(CN2CCC(c3cccc(OCc4ccc(C(F)(F)F)cc4)n3)CC2)nc2ccc(C(=O)O)cc21 [Example 9A-13, 1-methyl-2-{[4-(6-{[4-(trifluoromethyl)benzyl]oxy}pyridin-2-yl)piperidin-1-yl]methyl}-1H-benzimidazole-6-carboxylic acid] | –
12 | 290 | 74 | COC[C@H](C)n1c(CN2CCC(c3cccc(OCc4ccc(Cl)cc4F)n3)CC2)nc2ccc(C(=O)O)cc21 [Example 11A-45, 2-[(4-{6-[(4-chloro-2-fluorobenzyl)oxy]pyridin-2-yl}piperidin-1-yl)methyl]-1-[(2S)-1-methoxypropan-2-yl]-1H-benzimidazole-6-carboxylic acid] | –
13 | > 20000 | – | O=C(O)c1ccc2nc(CN3CCC(c4cccc(OCc5ccc(Cl)cc5F)n4)CC3)n(CCC3CCCCO3)c2c1 (stereo not shown) [Example 11A-05, 2-[(4-{6-[(4-chloro-2-fluorobenzyl)oxy]pyridin-2-yl}piperidin-1-yl)methyl]-1-[2-(tetrahydro-2H-pyran-2-yl)ethyl]-1H-benzimidazole-6-carboxylic acid] | –
14 | 450 | 71 | Cn1cnnc1CCn1c(CN2CCC(c3cccc(OCc4ccc(Cl)cc4F)n3)CC2)nc2ccc(C(=O)O)cc21 [Example 11A-53, 2-[(4-{6-[(4-chloro-2-fluorobenzyl)oxy]pyridin-2-yl}piperidin-1-yl)methyl]-1-[2-(4-methyl-4H-1,2,4-triazol-3-yl)ethyl]-1H-benzimidazole-6-carboxylic acid] | –
15 | > 20000 | – | CC(C)c1cc(Cn2c(CN3CCC(c4cccc(OCc5ccc(Cl)cc5F)n4)CC3)nc3ccc(C(=O)O)cc32)on1 [Example 11A-06, 2-[(4-{6-[(4-chloro-2-fluorobenzyl)oxy]pyridin-2-yl}piperidin-1-yl)methyl]-1-{[3-(propan-2-yl)-1,2-oxazol-5-yl]methyl}-1H-benzimidazole-6-carboxylic acid] | –
16 | 1300 | 42 | COCCn1c(CN2CCN(c3cccc(OCc4ccc(Cl)cc4F)n3)C[C@@H]2C(C)C)nc2ccc(C(=O)O)cc21 [Example 12A-05, 2-{[(2S)-4-{6-[(4-chloro-2-fluorobenzyl)oxy]pyridin-2-yl}-2-(propan-2-yl)piperazin-1-yl]methyl}-1-(2-methoxyethyl)-1H-benzimidazole-6-carboxylic acid] | –
17 | 9300 | 100 | Cc1nc(C(C)n2c(CN3CCC(c4cccc(OCc5ccc(Cl)cc5F)n4)CC3)nc3ccc(C(=O)O)cc32)n[nH]1 (stereo not shown) [Example 11A-67, 2-[(4-{6-[(4-chloro-2-fluorobenzyl)oxy]pyridin-2-yl}piperidin-1-yl)methyl]-1-[1-(5-methyl-1H-1,2,4-triazol-3-yl)ethyl]-1H-benzimidazole-6-carboxylic acid] | –
18 | 560 | 72 | COCC1(Cn2c(CN3CCC(c4cccc(OCc5ccc(Cl)cc5F)n4)CC3)nc3ccc(C(=O)O)cc32)CCC1 [Example 11A-74, 2-[(4-{6-[(4-chloro-2-fluorobenzyl)oxy]pyridin-2-yl}piperidin-1-yl)methyl]-1-{[1-(methoxymethyl)cyclobutyl]methyl}-1H-benzimidazole-6-carboxylic acid] | –
19 | 390 | 82 | Cc1nnc(Cn2c(CN3CCC(c4cccc(OCc5ccc(Cl)cc5F)n4)CC3)nc3ccc(C(=O)O)cc32)o1 [Example 10A-29] | –
